Reference: patent publication US20100323984A1, “COSMETIC ORAL AND/OR PARENTERAL USE OF GLUCOSAMINE OPTIONALLY IN COMBINATION WITH AT LEAST ONE POLYPHENOL COMPOUND, AND CORRESPONDING COMPOSITION” (LABORATOIRES INNEOV, priority 2006, published 2010)
Where a name gives a salt, the structure may show the parent alone.

Key:
[1] = test system: CD44 hyaluronic acid receptor; assay: Immunohistochemical demonstration of the hyaluronic acid receptor (CD44) in human skin explants kept alive; type: cell-based; settings: glucosamine 5 μM in culture medium, D4, scores 0 to 4, control skin 3.4 ± 0.7
Experimental: For this, a method of culturing was used which allows human skin to be kept alive under metabolic conditions close to in vivo (individuals aged between 50 and 60).
The glucosamine in aqueous solution was added to the culture medium, at the plasma concentration (5 μM), thus making it possible to simulate oral and/or parenteral administration.
Skin fragments were obtained after plastic surgery (mammary or abdominal plasties) from menopausal women (8 different donors from female individuals aged between 50 and 60). The fragments are placed in inserts which are themselves suspended above culture wells. Culture medium is added to the bottom of the wells, the medium passing by slow diffusion between the two compartments by means of a porous membrane (12 μm).
From D0 to D10, glucosamine was added to the culture medium of the skin fragments, every day. For the CD44 analysis, a series of skin samples was taken at D4. A second series was taken at D10 for assaying the collagen synthesis.
The immunodetection was carried out using the CSA kit (DAKO) and visualized in red with AEC (3-amino-9-ethylcarbazole).
Semi-quantitative scores made it possible to specify the intensity of the immunolabeling (scores 0 to 4, from negative to intense). […]

Human fibroblasts = assay: Cytotoxicity on fibroblasts (number of cells by DNA fluorimetry); type: cell-based; settings: for DNA (number of cells): 48 h, control 2.37 ± 0.33
Experimental: (§1) Human fibroblasts, harvested by growth from skin explants from a normal young donor, are routinely cultured in DMEM containing 10% of fetal bovine serum (FCS), ascorbic acid (50 μg/ml), penicillin-streptomycin (100 U/ml), referred to in the rest of the report as DMEM-FCS. They are amplified in culture by trypsinizing subconfluent cultures and dividing the dishes 1 in 3. The cultures are used up until passage 14. They are regularly tested for the absence of mycoplasma.
(§2) The glucosamine sulfate is provided in the form of (C6H14NO5)2 S04.2KCl (glucosamine.SO4 titer: 74%) brand Bioiberica, code F0379, Batch 4/0001. A stock solution at 13.6 mg/ml of distilled water is sterilized by filtration through an Acrodisc, and conserved at −20° C.
The fibroblasts are seeded into 24-well multiwells at 25 or 50×10^3 cells/well in DMEM-FCS. After 6 h of attachment, 20 μl of gradual dilutions of the active agents to be tested are added to the cultures. After 24 h of contact, the medium and the active agents are renewed. After 48 h of culture, the medium is removed, and the cell layers are rinsed twice with physiological saline. The number of cells is determined by measuring DNA by the fluorimetric technique using the bisbenzimide reagent in a “Gemini” fluorimeter. The cultures are prepared in triplicate and the measurements are carried out on each culture in duplicate. The control cultures receive the solvent alone.
The toxicity of glucosamine sulfate is tested at 0.5, 1, 5, 10, 20 and 40× the plasma concentration, i.e. 3.4, 6.8, 34, 68, 136 and 272 μg/ml of culture medium.

MMP3 = MMP3 mRNA by RT-PCR, human dermal fibroblasts in a monolayer on plastic; type: cell-based; settings: for MMP3 mRNA: control 1745 ± 31
Experimental: as §1, §2
The fibroblasts are seeded in DMEM-FCS in a proportion of 2.10^5 cells/disk of 6 cm. After 18 h of attachment, the culture medium is renewed with DMEM-FCS containing:
a) glucosamine sulfate alone • [plasma concentration] 2×(n=2) • 5× (n=2) • 10× (n=2) • control (n=3)
The total amount of RNA present in the solution that will be used to carry out the specific mRNA measurements is determined by measuring the 28S ribosomal RNA. The RNA solution is aliquoted and frozen at −80° C. until the specific mRNAs are assayed by RT-PCR. The mRNA results are expressed in arbitrary units (AU) per unit of 28S. The measurements are carried out in triplicate on two or three separate cultures. • MMP3: stromelysin 1 responsible for the degradation of proteoglycans and of other extracellular matrix constituents and activator of MMP 1

fibroblasts = assay: Retracting collagen gel (contractile properties of fibroblasts); type: cell-based, human
Experimental: Human fibroblasts, harvested by growth from skin explants from a normal young donor, are routinely cultured in DMEM containing 10% of fetal bovine serum (FCS), ascorbic acid (50 μg/ml), penicillin-streptomycin (100 U/ml), referred to in the rest of the report as DMEM-FCS. They are amplified in culture by trypsinizing subconfluent cultures and dividing the dishes 1 in 3. The cultures are used up until passage 14. They are regularly tested for the absence of mycoplasma. A sterile solution of purified native collagen is mixed with a suspension of fibroblasts, DMEM-FCS medium and the test products in bacteriological dishes. The mixture is brought to 37° C., this resulting in polymerization of the collagen and the formation of a three-dimensional collagen gel trapping the fibroblasts and floating in the culture medium. The cells attached to the collagen fibers and, under the contractile activity of the cytoskeleton of the fibroblasts, the gel is gradually retracted. This gel is commonly referred to as “Retracting Collagen Gel” or RCG. […]

Vimentin = assay: Example 4 clinical study, skin biopsy mRNA by RT-PCR: vimentin; type: in vivo, human; settings: oral, equivalent to 250 mg of glucosamine, 8 weeks, women aged 50 to 65, n=8; placebo 1.27 ± 0.33
Experimental: (§3) Restrictive randomized monocentric double-blind study versus placebo. Fifteen women, aged 50 to 65, were given, as a supplement, for 8 weeks, either a placebo (n=7) or glucosamine sulfate (n=8) equivalent to 250 mg of glucosamine (GLU).
(§4) A skin biopsy 3 mm in diameter (inner face of the arm) was taken before the beginning (T0) and at the end of the 8 weeks of supplementation (T8).
(§5) The total RNA contained in the skin samples was extracted and purified by means of an Ambion Ribo Pure Kit.
(§6) The analysis of the specific dermal markers was carried out by RT-PCR as previously described (Nusgens et al, JID, 116: 853-859, 2001). All the results are expressed in arbitrary units relative to the amount of 28S rRNA.
(§7) The effects of the supplementation (placebo or GLU) were then analyzed by comparing, for each volunteer, the individual expression of the mRNAs at T8 and at T0. A […] ratio was thus calculated. The means of each ratio of the two groups were compared using a Student's test for paired samples.

Decorin = assay: Example 4 clinical study, skin biopsy mRNA by RT-PCR: decorin; type: in vivo, human; settings: oral, equivalent to 250 mg of glucosamine, 8 weeks, women aged 50 to 65, n=8; placebo 1.11 ± 0.22
Experimental: as §3, §4, §5, §6, §7

Fibromodulin = assay: Example 4 clinical study, skin biopsy mRNA by RT-PCR: fibromodulin; type: in vivo, human; settings: oral, equivalent to 250 mg of glucosamine, 8 weeks, women aged 50 to 65, n=8; placebo 1.12 ± 0.16
Experimental: as §3, §4, §5, §6, §7

Biglycan = assay: Example 4 clinical study, skin biopsy mRNA by RT-PCR: biglycan; type: in vivo, human; settings: oral, equivalent to 250 mg of glucosamine, 8 weeks, women aged 50 to 65, n=8; placebo 1.10 ± 0.18
Experimental: as §3, §4, §5, §6, §7

Hyaluron synthase = assay: Example 4 clinical study, skin biopsy mRNA by RT-PCR: hyaluron synthase; type: in vivo, human; settings: oral, equivalent to 250 mg of glucosamine, 8 weeks, women aged 50 to 65, n=8; placebo 1.51 ± 0.73
Experimental: as §3, §4, §5, §6, §7

Question: What does the source list for `N[C@@H](C=O)[C@@H](O)[C@H](O)[C@H](O)CO` [glucosamine sulfate]?
Answer: CD44 labeling Topography score (mean semi-quantitative score) [1]: 3.7 ± 0.5; number of cells (rate of proliferation of the fibroblasts) (Human fibroblasts; 34 μg/ml, p=0.04): increase in the number of cells; DNA (number of cells) (Human fibroblasts; 0.5x plasma concentration, 3.4 μg/ml): 2.81 ± 0.41 µg/mL; DNA (number of cells) (Human fibroblasts; 1x plasma concentration, 6.8 μg/ml): 2.56 ± 0.37 µg/mL; DNA (number of cells) (Human fibroblasts; 5x plasma concentration, 34 μg/ml): 2.89 ± 0.23 µg/mL; DNA (number of cells) (Human fibroblasts; 10x plasma concentration, 68 μg/ml): 2.61 ± 0.26 µg/mL; DNA (number of cells) (Human fibroblasts; 20x plasma concentration, 136 μg/ml): 2.52 ± 0.18 µg/mL; DNA (number of cells) (Human fibroblasts; 40x plasma concentration, 272 μg/ml): 2.50 ± 0.32 µg/mL; cytotoxic effect (Human fibroblasts; even at concentrations representing 40× the plasma concentration): No cytotoxic effect; MMP3 mRNA (MMP3; 2x plasma concentration): 1261 ± 120 UA/28S; level of MMP3 mRNA (in words) (MMP3; 2x, 5x, 10x plasma concentration, p<0.005): significant reduction; MMP3 mRNA (MMP3; 5x plasma concentration): 1162 ± 22 UA/28S; MMP3 mRNA (MMP3; 10x plasma concentration): 1060 ± 375 UA/28S; reduction in the diameter of the collagen gel (retraction) (fibroblasts; 2×, 5× and 10× the plasma concentration, 20 000 fibroblasts, 46 h, control 19 mm): 22 mm; reduction in diameter of the collagen gel (fibroblasts; plasma concentration, 25 000 fibroblasts, 18 hours, controls 21 mm): 23 mm; Vimentin mRNA (T8/T0) (Vimentin): significantly increases; Decorin mRNA (T8/T0) (Decorin): significantly increases; Fibromodulin mRNA (T8/T0) (Fibromodulin): significantly increases; Biglycan mRNA (T8/T0) (Biglycan): significantly increases; Hyaluron synthase mRNA (T8/T0) (Hyaluron synthase): significantly increases
